The nature of data set [1]: Intrinsic clearance in rat hepatocytes assessed as per million cells. It is filed as ADME, cell-based, Hepatocyte. Particulars: read-out: CLH.
Data set [2] in a line: Cytotoxicity against human HepG2 cells assessed as reduction in cell viability. The data set is classed as cell-based. Particulars: read-out: TC50 (the source's name).
Data set [3] is described as follows: Selectivity index, ratio of TC50 for human HepG2 cells to EC50 for antileishmanial activity against Leishmania major amastigotes infected in mouse RAW 264.7 cells. It is filed as toxicity, cell-based.
Data set [4] can be described thus: Intrinsic clearance in human liver microsomes assessed as per mg protein. It is filed as ADME, Microsome. Particulars: for microsomal CLint: liver microsomes, read-out: CLH.
The subject of data set [5] is Plasmodium falciparum. The data set is described as follows: Antiplasmodial activity against Plasmodium falciparum D6 measured after 72 hrs by SYBR green fluorescence dye based microplate reader analysis. It is filed as functional, organism-based. Particulars: D6, 72 h.
For data set [6], the system named is Leishmania major. Nature of the data set: Antileishmanial activity against Leishmania major amastigotes infected in mouse RAW 264.7 cells by luciferase reporter gene assay. It is filed as functional, organism-based. Particulars: RAW264.7. (Reporter assays use an easily measured gene product as a stand-in for the process of interest.)
Data set [7] is described as follows: Aqueous solubility of compound at pH 7.4. It is filed as physicochemical.
Data set [8] is described as follows: Protein binding in human plasma. The data set is classed as ADME, cell-free. Particulars: read-out: PPB (converted).
Data set [9] deals with Trypanosoma cruzi. Nature of the data set: Antitrypanosomal activity against Trypanosoma cruzi Tulahuen trypomastigotes infected in mouse NIH/3T3 cells measured after 96 hrs by beta-galactosidase reporter gene assay. It is filed as functional, organism-based. Particulars: NIH3T3, 96 h.
Data set [10] has as its system Trypanosoma cruzi. The data set is described as follows: Antitrypanosomal activity against Trypanosoma cruzi CaI-72 trypomastigotes infected in mouse C2C12 cells measured after 72 hrs by DAPI staining based assay. The data set is classed as functional, organism-based. Particulars: CaI-72, C2C12, 72 h.
The nature of data set [11]: Selectivity index, ratio of TC50 for mouse B10R cells to EC50 for antileishmanial activity against Leishmania donovani infected in mouse B10R cells. The data set is classed as toxicity, cell-based.
In data set [12] the test system is Leishmania donovani. Nature of the data set: Antileishmanial activity against Leishmania donovani infected in mouse B10R cells after 72 hrs by DAPI staining based assay. The data set is classed as functional, organism-based.
A short description of data set [13]: Selectivity index, ratio of TC50 for mouse C2C12 cells to EC50 for antitrypanosomal activity against Trypanosoma cruzi CaI-72 trypomastigotes infected in mouse C2C12 cells. The data set is classed as toxicity, cell-based.
The nature of data set [14]: Selectivity index, ratio of TC50 for human HepG2 cells to EC50 for antiplasmodial activity against Plasmodium falciparum D6. The data set is classed as toxicity.
For data set [15], the system named is Leishmania donovani. Nature of the data set: Antileishmanial activity against Leishmania donovani promastigotes infected in BALB/c mouse assessed as effect on parasitemia at 50 mg/kg bid for 14 days and measured after 5 weeks post infection. It is filed as functional, organism-based.
Data set [16] in a line: Cytotoxicity against mouse C2C12 cells assessed as reduction in cell viability. It is filed as cell-based. Particulars: read-out: TC50 (the source's name).
Data set [17] concerns Plasmodium falciparum. The data set is described as follows: Antiplasmodial activity against Plasmodium falciparum W2 after 72 hrs by SYBR Green fluorescence assay. The data set is classed as functional, organism-based. Particulars: W2, 72 h.
The subject of data set [18] is Plasmodium falciparum. The data set is described as follows: Antiplasmodial activity against Plasmodium falciparum TM91C235 after 72 hrs by SYBR Green fluorescence assay. It is filed as functional, organism-based. Particulars: TM91C235, 72 h.
The subject of data set [19] is Trypanosoma cruzi. Nature of the data set: Antitrypanosomal activity against Trypanosoma cruzi Tulahuen amastigotes measured after 96 hrs by beta-galactosidase reporter gene assay. The data set is classed as functional, organism-based.
The test system of data set [20] is Leishmania major. The data set is described as follows: Antileishmanial activity against Leishmania major. The data set is classed as functional, organism-based.
Data set [21] concerns Plasmodium falciparum. Nature of the data set: Antiplasmodial activity against chloroquine-sensitive mefloquine resistant Plasmodium falciparum D6. It is filed as functional, organism-based.
Setting [22] is: aqueous solution, read-out: solubility.

≈ marks a conversion by molar mass, not a printed value. Calls of active or inactive are those of the source. The calls are words filed in the database; no cut-off is given here.

On to `CS(=O)(=O)N1CCN(c2ncc(-c3ccc4c(Nc5cnccn5)ccnc4c3)cn2)CC1`, for which the hepatocyte CLint in data set [1] came to 28 µL/min/1e6 cells. Also, in [2], the CC50 was more than 33 µM. In addition, the selectivity ratio in data set [3] was more than 45. Also, the microsomal CLint in data set [4] amounted to 44 µL/min/mg. The EC50 in the data set with Plasmodium falciparum [5] was more than 4.3 µM; in the data set on Leishmania major [6], 0.73 µM; in the data set with Trypanosoma cruzi [9] it was 45 µM. The solubility in [7] (setting [22]) stood at 0.06 µM (≈ 0.0278 µg/mL). Besides, in data set [8], the fraction unbound was 0.05.

For `Cc1ccc2[nH]c3c4ccc(-c5cnc(N6CCCN(C)CC6)nc5)cc4ncc3c2c1`, the EC50 is 0.21 µM in the data set with Trypanosoma cruzi [10], 0.037 µM in the data set with Plasmodium falciparum [5], 0.44 µM with Leishmania major [6] and 0.64 µM with Leishmania donovani [12]. In addition, the selectivity ratio in [11] was found to be 3.6; in data set [3], 10; in data set [13], 2.4; in [14] it was 127.

On to `CN1CCCN(c2ncc(-c3ccc4/c(=N/c5cnccn5)ccn(C)c4c3)cn2)CC1`, for which the EC50 in the data set on Trypanosoma cruzi [10] was determined as 10 µM; in the data set with Plasmodium falciparum [5], 0.12 µM; in the data set with Leishmania donovani [12], 0.02 µM. Further, the hepatocyte CLint in [1] is 13 µL/min/1e6 cells. Besides, the CLH in [4] (microsomes) stood at 22 µL/min. For the same molecule, in the data set on Leishmania donovani [15], the result was inactive.

Take `O=S(=O)(c1ccc(-c2ccc3nccc(N[C@@H]4CCCC[C@H]4O)c3c2)cc1)N1CCOCC1`: the values for the concentration for a half-maximal effect (EC50) in the data set with Trypanosoma cruzi [10], in the data set on Plasmodium falciparum [5] and in the data set on Leishmania major [6] were 0.33 µM, 0.4 µM and more than 22 µM, respectively. In addition, in data set [1], the hepatocyte CLint was found to be 30 µL/min/1e6 cells. Further, the microsomal CLint in data set [4] was found to be 43 µL/min/mg. Also, in [7] (setting [22]), the solubility turned out to be 137 µM (≈ 64.1 µg/mL). For the same molecule, the selectivity ratio in [13] was more than 30; in [14], more than 80. For the same molecule, the fraction unbound in [8] is 0.28. Moreover, in data set [16], the CC50 was more than 10 µM.

With `CN1CCN(c2ncc(-c3ccc4c(Nc5ccc(OCc6cccc(F)c6)c(Cl)c5)ccnc4c3)cn2)CC1`, the concentration giving a half-maximal response (EC50) in the data set with Trypanosoma cruzi [10] was 0.03 µM; in the data set with Plasmodium falciparum [5], 0.018 µM; with Leishmania major [6] it was more than 1.5 µM; in the data set with Leishmania donovani [12], 0.023 µM. Further, the selectivity ratio in data set [11] was found to be 1740; in data set [13], 290; in data set [14], 167. Besides, the result in the data set with Leishmania donovani [15] was inactive.

Consider `CN1CCCN(c2ncc(-c3ccc4c(Nc5ccc(OC(F)(F)F)cc5)ccnc4c3)cn2)CC1`, for which the EC50 was 0.06 µM with Trypanosoma cruzi [10], 0.006 µM in the data set with Plasmodium falciparum [5], 8.2 µM in the data set on Leishmania major [6] and 0.085 µM in the data set with Leishmania donovani [12]. In addition, the selectivity ratio was 7.8 in data set [11], 0.8 in data set [3], 38 in [13] and 233 in [14].

Consider `CN1CCCN(c2ccc(-c3ccc4c(Nc5cnccn5)ccnc4c3)cc2)CC1`, for which the EC50 is 0.37 µM with Trypanosoma cruzi [10], 0.01 µM in the data set with Plasmodium falciparum [5] and 5.5 µM with Leishmania major [6]. Moreover, the selectivity ratio was 1.7 in data set [3], 1 in [13] and 960 in data set [14]. In addition, the solubility in data set [7] (setting [22]) came to 4.1 µM (≈ 1.68 µg/mL).

On to `CN1CCN(c2ncc(-c3ccc4c(Nc5cnccn5)ccnc4c3)cn2)CC1`, for which, in [1], the hepatocyte CLint was determined as 127 µL/min/1e6 cells. The 50% effective concentration (EC50) in the data set with Plasmodium falciparum [17] is 0.062 µM; in the data set with Plasmodium falciparum [18] it was 0.037 µM; in the data set with Plasmodium falciparum [5], 0.026 µM; in the data set on Leishmania major [6] it was more than 15 µM; in the data set on Trypanosoma cruzi [19] it was 6 µM; in the data set on Leishmania major [20] it was more than 15 µM. The molecule further yielded a 50% effective concentration (EC50) with Trypanosoma cruzi [9] of 6 µM. For the same molecule, in data set [7] (buffer), the solubility was […].

As for `CS(=O)(=O)CCNCc1ccc(-c2ccc3ncnc(Nc4ccc(OCc5cccc(F)c5)c(Cl)c4)c3c2)o1` [LAPATINIB], the figures for the EC50 with Plasmodium falciparum [21], in the data set on Trypanosoma cruzi [19] and in the data set on Leishmania major [20] were 0.53 µM, 1.5 µM and more than 15 µM, respectively.

The term EC50 denotes the concentration needed to bring the measured effect to its halfway point. High values mean weaker potency, low ones greater potency. As usually defined, the solubility is how much of the substance goes into solution per volume.

Values taken from ChEMBL document CHEMBL4342474, “Scaffold and Parasite Hopping: Discovery of New Protozoal Proliferation Inhibitors” (ACS Med Chem Lett, 2020).
